Earlier results as cited in patent US5093372A, “Novel pharmaceutical composition comprising exifone and water-soluble polymer” (Fujisawa Pharmaceutical Co. Inc., priority 1987, dated 1992).

Columns and labels:
[1] = orally administered as a conventional pharmaceutical composition

## O=C(c1cc(O)c(O)c(O)c1)c1ccc(O)c(O)c1O [exifone]
other
  solubility in water (in words): sparingly soluble in water
about
  saturated solubility in water: 70 to 80 µg/mL
[1]
  absorption into blood circulation (in words): poor
  bioavailability (in words): low
